Read-outs that look alike come from different tables or passages of the source.
Molecular target: human APJ receptor (Homo sapiens (Human), UniProt P35414)
Assay: biochemical
Format: biochemical
Details: read-out: Activity hAPJ SPA EC50 IP
Procedure: The human APJ receptor was cloned by polymerase chain reaction and the gene encoding the receptor was subcloned in pFLAG-CMV™-3 expression vector (Sigma, Saint Louis, Mo. USA) in-house at Amgen. A GTPγS binding assay was performed on membranes prepared from CHO cells stably expressing human APJ receptor. The optimum experimental conditions for the concentrations of GDP, MgCl2, and NaCl in the assay buffer were initially determined. The assay was performed in 9 μL assay buffer [20 mM HEPES, pH 7.5, 5 mM MgCl2, 100 mM NaCl and 0.1% (w/v) BSA], 1 μL of diluted test compound (starting with 0.75 mM, 2-fold serial dilution with DMSO, total 22 points), 10 μL of 18 µM GDP (final concentration of 3 μM GDP), 20 μL of […] membrane protein expressing human APJ receptor captured with WGA PS beads (final concentration of 5 μg per well), and 20 μL of 0.3 nM [^35S]GTPγS (final concentration is 0.1 nM [^35S]GTPγS)(Perkin Elmer Life and Analytical Sciences, Waltham USA).

[1] = [35S]GTPγS binding, membranes from CHO cells stably expressing human APJ receptor

Sequence of human APJ receptor (P35414 whole entry): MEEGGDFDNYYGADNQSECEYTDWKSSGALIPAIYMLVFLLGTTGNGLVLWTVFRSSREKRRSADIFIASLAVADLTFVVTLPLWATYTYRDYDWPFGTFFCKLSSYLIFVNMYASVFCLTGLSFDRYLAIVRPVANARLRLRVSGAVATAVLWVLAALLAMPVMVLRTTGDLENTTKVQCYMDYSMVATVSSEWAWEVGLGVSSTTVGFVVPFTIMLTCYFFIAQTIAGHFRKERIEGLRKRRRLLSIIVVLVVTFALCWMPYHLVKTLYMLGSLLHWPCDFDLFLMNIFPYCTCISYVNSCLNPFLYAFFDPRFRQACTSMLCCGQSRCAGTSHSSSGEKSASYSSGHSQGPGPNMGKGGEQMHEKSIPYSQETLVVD

| SMILES | EC50 [1] [µM] | EC50 [µM] |
| --- | --- | --- |
| COc1cccc(OC)c1-n1c(C[C@@H]2CCCO2)nnc1NS(=O)(=O)[C@@H](C)[C@H](C)c1ncc(Cl)cn1 (mixture of isomers) [Example 46.0, (2S,3R)-3-(5-chloro-2-pyrimidinyl)-N-(4-(2,6-dimethoxyphenyl)-5-((2R)-tetrahydro-2-furanylmethyl)-4H-1,2,4-triazol-3-yl)-2-butanesulfonamide and (2S,3R)-3-(5-chloro-2-pyrimidinyl)-N-(4-(2,6-dimethoxyphenyl)-5-((2S)-tetrahydro-2-furanylmethyl)-4H-1,2,4-triazol-3-yl)-2-butanesulfonamide] | 0.33 |  |
| COc1cccc(OC)c1-n1c(C[C@@H]2CCS(=O)(=O)C2)nnc1NS(=O)(=O)[C@@H](C)[C@H](C)c1ncc(Cl)cn1 (mixture of isomers) [Example 47.0, (2S,3R)-3-(5-chloro-2-pyrimidinyl)-N-(4-(2,6-dimethoxyphenyl)-5-(((3R)-1,1-dioxidotetrahydro-3-thiophenyl)methyl)-4H-1,2,4-triazol-3-yl)-2-butanesulfonamide and (2S,3R)-3-(5-chloro-2-pyrimidinyl)-N-(4-(2,6-dimethoxyphenyl)-5-(((3S)-1,1-dioxidotetrahydro-3-thiophenyl)methyl)-4H-1,2,4-triazol-3-yl)-2-butanesulfonamide] | 0.07 |  |
| COc1ncnc(OC)c1-n1c(NS(=O)(=O)[C@@H](C)[C@H](C)c2ncc(Cl)cn2)nnc1[C@@H](C)OC(C)C (single isomer, unassigned) [Example 2.0, (2S,3R)-3-(5-chloro-2-pyrimidinyl)-N-(4-(4,6-dimethoxy-5-pyrimidinyl)-5-((1R)-1-(1-methylethoxy)ethyl)-4H-1,2,4-triazol-3-yl)-2-butanesulfonamide or (2S,3R)-3-(5-chloro-2-pyrimidinyl)-N-(4-(4,6-dimethoxy-5-pyrimidinyl)-5-((1S)-1-(1-methylethoxy)ethyl)-4H-1,2,4-triazol-3-yl)-2-butanesulfonamide] | 0.17 |  |
| COc1ncnc(OC)c1-n1c(NS(=O)(=O)[C@@H](C)[C@H](C)c2ncc(Cl)cn2)nnc1[C@@H](C)OC(C)C (single isomer, unassigned) [Example 3.0, (2S,3R)-3-(5-chloro-2-pyrimidinyl)-N-(4-(4,6-dimethoxy-5-pyrimidinyl)-5-((1R)-1-(1-methylethoxy)ethyl)-4H-1,2,4-triazol-3-yl)-2-butanesulfonamide or (2S,3R)-3-(5-chloro-2-pyrimidinyl)-N-(4-(4,6-dimethoxy-5-pyrimidinyl)-5-((1S)-1-(1-methylethoxy)ethyl)-4H-1,2,4-triazol-3-yl)-2-butane sulfonamide] | 0.32 |  |
| COc1ncnc(OC)c1-n1c(NS(=O)(=O)[C@@H](C)[C@H](C)c2ncc(Cl)cn2)nnc1[C@@H](C)OC (single isomer, unassigned) [Example 4.0, (2S,3R)-3-(5-chloro-2-pyrimidinyl)-N-(4-(4,6-dimethoxy-5-pyrimidinyl)-5-((1R)-1-methoxyethyl)-4H-1,2,4-triazol-3-yl)-2-butanesulfonamide or (2S,3R)-3-(5-chloro-2-pyrimidinyl)-N-(4-(4,6-dimethoxy-5-pyrimidinyl)-5-((1S)-1-methoxyethyl)-4H-1,2,4-triazol-3-yl)-2-butanesulfonamide] | 0.27 |  |
| COc1ncnc(OC)c1-n1c(NS(=O)(=O)[C@@H](C)[C@H](C)c2ncc(Cl)cn2)nnc1[C@@H](C)OC (single isomer, unassigned) [Example 5.0, (2S,3R)-3-(5-chloro-2-pyrimidinyl)-N-(4-(4,6-dimethoxy-5-pyrimidinyl)-5-((1R)-1-methoxyethyl)-4H-1,2,4-triazol-3-yl)-2-butanesulfonamide or (2S,3R)-3-(5-chloro-2-pyrimidinyl)-N-(4-(4,6-dimethoxy-5-pyrimidinyl)-5-((1S)-1-methoxyethyl)-4H-1,2,4-triazol-3-yl)-2-butanesulfonamide] | 0.31 |  |
| CC[C@@H](OC)c1nnc(NS(=O)(=O)[C@@H](C)[C@H](C)c2ncc(Cl)cn2)n1-c1c(OC)ncnc1OC (single isomer, unassigned) [Example 6.0, (2S,3R)-3-(5-chloro-2-pyrimidinyl)-N-(4-(4,6-dimethoxy-5-pyrimidinyl)-5-((1R)-1-methoxypropyl)-4H-1,2,4-triazol-3-yl)-2-butanesulfonamide or (2S,3R)-3-(5-chloro-2-pyrimidinyl)-N-(4-(4,6-dimethoxy-5-pyrimidinyl)-5-((1S)-1-methoxypropyl)-4H-1,2,4-triazol-3-yl)-2-butanesulfonamide] | 0.74 |  |
| CC[C@@H](OC)c1nnc(NS(=O)(=O)[C@@H](C)[C@H](C)c2ncc(Cl)cn2)n1-c1c(OC)ncnc1OC (single isomer, unassigned) [Example 7.0, (2S,3R)-3-(5-chloro-2-pyrimidinyl)-N-(4-(4,6-dimethoxy-5-pyrimidinyl)-5-((1R)-1-methoxypropyl)-4H-1,2,4-triazol-3-yl)-2-butanesulfonamide or (2S,3R)-3-(5-chloro-2-pyrimidinyl)-N-(4-(4,6-dimethoxy-5-pyrimidinyl)-5-((1S)-1-methoxypropyl)-4H-1,2,4-triazol-3-yl)-2-butanesulfonamide] | 0.36 |  |
| COc1ncnc(OC)c1-n1c(CC(C)(C)C)nnc1NS(=O)(=O)[C@@H](C)[C@H](C)c1ncc(Cl)cn1 [Example 1.0, (2S,3R)-3-(5-chloro-2-pyrimidinyl)-N-(4-(4,6-dimethoxy-5-pyrimidinyl)-5-(2,2-dimethylpropyl)-4H-1,2,4-triazol-3-yl)-2-butanesulfonamide] | 0.24 |  |
| COCc1nnc(NS(=O)(=O)[C@@H](C)[C@H](C)c2cnc(C)cn2)n1-c1c(OC)cccc1OC [Example 8.0, (2S,3R)-N-(4-(2,6-dimethoxyphenyl)-5-(methoxymethyl)-4H-1,2,4-triazol-3-yl)-3-(5-methyl-2-pyrazinyl)-2-butanesulfonamide] | 0.26 |  |
| COCc1nnc(NS(=O)(=O)[C@@H](C)[C@H](C)c2cnc(C)cn2)n1-c1c(OC)ncnc1OC [Example 9.0, (2S,3R)-N-(4-(4,6-dimethoxy-5-pyrimidinyl)-5-(methoxymethyl)-4H-1,2,4-triazol-3-yl)-3-(5-methyl-2-pyrazinyl)-2-butanesulfonamide] | 0.63 |  |
| COCc1nnc(NS(=O)(=O)[C@@H](C)[C@H](C)c2ncc(Cl)cn2)n1-c1c(OC)cccc1OC [Example 10.0, (2S,3R)-3-(5-chloro-2-pyrimidinyl)-N-(4-(2,6-dimethoxyphenyl)-5-(methoxymethyl)-4H-1,2,4-triazol-3-yl)-2-butanesulfonamide] |  | 0.015 |
| COCc1nnc(NS(=O)(=O)[C@@H](C)[C@H](C)c2ncc(Cl)cn2)n1-c1c(OC)ncnc1OC [Example 11.0, (2S,3R)-3-(5-chloro-2-pyrimidinyl)-N-(4-(4,6-dimethoxy-5-pyrimidinyl)-5-(methoxymethyl)-4H-1,2,4-triazol-3-yl)-2-butanesulfonamide] | 0.088 |  |
| COCc1nnc(NS(=O)(=O)[C@@H](C)[C@H](OC)c2ncc(Cl)cn2)n1-c1c(OC)cccc1OC [Example 12.0, (1R,2S)-1-(5-chloro-2-pyrimidinyl)-N-(4-(2,6-dimethoxyphenyl)-5-(methoxymethyl)-4H-1,2,4-triazol-3-yl)-1-methoxy-2-propanesulfonamide] |  | 0.0048 |
| COc1cccc(OC)c1-n1c(NS(=O)(=O)[C@@H](C)[C@H](C)c2ncc(Cl)cn2)nnc1[C@@H](O)c1ccccc1 [Example 13.0, (2S,3R)-3-(5-chloro-2-pyrimidinyl)-N-(4-(2,6-dimethoxyphenyl)-5-((S)-hydroxy(phenyl)methyl)-4H-1,2,4-triazol-3-yl)-2-butanesulfonamide] | 0.11 |  |
| COc1cccc(OC)c1-n1c(Cc2ccccc2)nnc1NS(=O)(=O)[C@@H](C)[C@H](C)c1ncc(Cl)cn1 [Example 14.0, (2S,3R)-N-(5-benzyl-4-(2,6-dimethoxyphenyl)-4H-1,2,4-triazol-3-yl)-3-(5-chloro-2-pyrimidinyl)-2-butanesulfonamide] | 0.0046 |  |
| COc1cccc(OC)c1-n1c(Cc2cccnc2)nnc1NS(=O)(=O)[C@@H](C)[C@H](C)c1ncc(C)cn1 [Example 15.0, (2S,3R)-N-(4-(2,6-dimethoxyphenyl)-5-(3-pyridinylmethyl)-4H-1,2,4-triazol-3-yl)-3-(5-methyl-2-pyrimidinyl)-2-butanesulfonamide] | 0.18 |  |
| COc1cccc(OC)c1-n1c(NS(=O)(=O)[C@@H](C)[C@H](C)c2ncc(C)cn2)nnc1-c1cccc2c1CC(=O)N2 [Example 16.0, (2S,3R)-N-(4-(2,6-dimethoxyphenyl)-5-(2-oxoindolin-4-yl)-4H-1,2,4-triazol-3-yl)-3-(5-methylpyrimidin-2-yl)butane-2-sulfonamide] | 0.12 |  |
| COc1cccc(OC)c1-n1c(NS(=O)(=O)[C@@H](C)[C@H](C)c2ncc(C)cn2)nnc1-c1cccc2c1CC(=O)N2 [Example 17.0, (2S,3R)-N-(4-(2,6-dimethoxyphenyl)-5-(2-oxoindolin-4-yl)-4H-1,2,4-triazol-3-yl)-3-(5-methylpyrimidin-2-yl)butane-2-sulfonamide] | 0.35 |  |
| COc1cccc(OC)c1-n1c(NS(=O)(=O)[C@@H](C)[C@H](C)c2ncc(C)cn2)nnc1[C@H](OC)c1ccccc1 [Example 18.0, (2S,3R)-N-(4-(2,6-dimethoxyphenyl)-5-((R)-methoxy(phenyl)methyl)-4H-1,2,4-triazol-3-yl)-3-(5-methyl-2-pyrimidinyl)-2-butanesulfonamide] | 0.24 |  |

— patent US11191762B2, “Alkyl substituted triazole compounds as agonists of the APJ Receptor” (priority 2016, dated 2021)
